Values quoted from earlier work as cited in patent US20260356814A1, “INDOLINE DERIVATIVES AS SEROTONERGIC AGENTS USEFUL FOR THE TREATMENT OF DISORDERS RELATED THERETO” (MINDSET PHARMA INC., priority 2022, published 2026).
Where two headings read alike, the source gives them in different places.

Columns and labels:
human 5-HT2A receptor = human 5-HT2A receptor (Homo sapiens, UniProt P28223); details: cited from earlier work
[1] = tested on: subpopulations of low attentive and low motivated rats; details: rat, in vivo; cited from earlier work
[2] = tested on: brain's default mode network; details: intravenously administered; cited from earlier work
tobacco use disorder = details: cited from earlier work
[3] = molecular target: 5-HT2A and 5-HT2C receptors; details: compared with LSD; cited from earlier work
5-HT2 receptor = details: daily administration; cited from earlier work
[4] = controlled setting; cited from earlier work
[5] = tested on: depression and anxiety associated with life-threatening disease; details: in a supportive setting; cited from earlier work
[6] = tested on: absolute metabolic rate of glucose in frontal and other cortical regions, striatal and limbic subcortical structures; details: 15 or 20 mg orally, healthy participants; cited from earlier work

Sequence of human 5-HT2A receptor (P28223 whole entry): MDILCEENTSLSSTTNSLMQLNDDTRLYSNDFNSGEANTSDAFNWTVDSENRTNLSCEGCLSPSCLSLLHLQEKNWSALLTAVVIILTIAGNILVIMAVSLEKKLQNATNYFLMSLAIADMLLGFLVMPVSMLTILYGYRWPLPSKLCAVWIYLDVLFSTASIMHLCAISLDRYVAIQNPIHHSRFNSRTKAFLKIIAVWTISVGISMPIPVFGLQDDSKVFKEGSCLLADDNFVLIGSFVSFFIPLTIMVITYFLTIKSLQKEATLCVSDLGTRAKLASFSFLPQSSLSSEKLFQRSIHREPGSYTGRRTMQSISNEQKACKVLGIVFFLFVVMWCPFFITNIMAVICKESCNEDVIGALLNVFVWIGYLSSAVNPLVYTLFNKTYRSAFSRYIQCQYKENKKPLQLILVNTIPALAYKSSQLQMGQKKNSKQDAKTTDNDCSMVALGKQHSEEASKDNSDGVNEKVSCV

For `CN(C)CCc1c[nH]c2cccc(OP(=O)(O)O)c12` [Psilocybin, 4-phosphoryloxy-N,N-dimethyltrypatmine], the “affinity for 5-HT2A, human versus rat receptor” value (human 5-HT2A receptor) is listed as “stronger affinity for the human 5-HT2A receptor than for the rat receptor”, the “performance on 5 choice serial reaction time and progressive ratio tasks” value [1] is listed as “improved performance on 5 choice serial reaction time and progressive ratio tasks” and the “oscillatory power in areas of the brain's default mode network” value [2] is listed as “decreases in oscillatory power in areas of the brain's default mode network”. For the same compound, the abstinence rate (tobacco use disorder; 12 months follow-up) was 67%, the abstinence rate (tobacco use disorder; six months follow-up) was 80% and the “K (i) for 5-HT2A and 5-HT2C relative to LSD” value [3] was “lower K (i) for both 5-HT2A and 5-HT2C receptors than LSD”. For the same compound, the “5-HT2 receptor density in rat brain” value (5-HT2 receptor) was “reduce 5-HT2 receptor density in rat brain”, the headache [4] was “transient, delayed headache, with incidence, duration, and severity increased in a dose-related manner” and the “anti-depressant and anxiolytic effects” value [5] was “significant and sustained anti-depressant and anxiolytic effects”. The “absolute metabolic rate of glucose” value [6] was “increased absolute metabolic rate of glucose in frontal, and to a lesser extent in other, cortical regions as well as in striatal and limbic subcortical structures”.
